In patent US10717733B2, “Haloallylamine indole and azaindole derivative inhibitors of lysyl oxidases and uses thereof” (PHARMAXIS LTD., priority 2016, dated 2020) one finds IC50 data, which are given here for 22 compounds.

Format in all cases: biochemical
The target of assay [1] is human recombinant SSAO/VAP-1 (Homo sapiens (Human), UniProt Q16853). Briefly: Inhibition of human recombinant SSAO/VAP-1 amine oxidase activity. To be noted: 30 min preincubation at 37° C., 600 μM benzylamine. A digest of the protocol:
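Purified SSAO/VAP-1 (residues 34-763, expressed in CHO Lec 8 cells; 0.25 μg/mL) preincubated 30 min at 37° C with compound in 0.1 M sodium phosphate pH 7.4. Reaction mix of 600 μM benzylamine, 120 μM Amplex Red and 1.5 U/mL HRP added; fluorescence (ex 565/em 590 nm) read every 2.5 min for 30 min; IC50 from kinetic slopes over 4-11 point curves.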

The target in a further assay is Human LOXL2 (Homo sapiens (Human), UniProt Q9Y4K0). The experiment in a line: LOXL2 inhibition, peroxidase-coupled Amplex Red amine oxidase assay. To be noted: 30 min preincubation at 37° C., putrescine substrate. In outline:
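Enzyme in 1.2 M urea, 50 mM sodium borate pH 8.2 with 1 μM mofegiline and 0.5 mM pargyline, preincubated 30 min at 37° C with compound (11-point CRC). Putrescine at twice KM (10 mM for LOXL2) with Amplex Red/HRP; fluorescence (ex 565, em 590) read kinetically 30 min; IC50 from slopes.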

The next assay concerns the target Recombinant human MAO-B (Homo sapiens (Human), UniProt P27338). The experiment in a line: Inhibition of human recombinant MAO-B. To be noted: benzylamine 100 μM. A digest of the protocol: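 Recombinant human MAO-B used as enzyme source (0.06 mg/mL, stated concentration). Run as for the human SSAO/VAP-1 assay, except benzylamine substrate at 100 μM.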
A further assay addresses Bovine LOX (Bos taurus (Bovine), UniProt P33072). The experiment in a line: LOX inhibition, peroxidase-coupled Amplex Red amine oxidase assay. To be noted: 30 min preincubation at 37° C., putrescine substrate. In outline:
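Bovine LOX in 1.2 M urea, 50 mM sodium borate pH 8.2 with 1 μM mofegiline and 0.5 mM pargyline; putrescine at twice KM (e.g. 20 mM for LOX) with Amplex Red/HRP. Fluorescence (ex 565/em 590 nm) read kinetically over 30 min at 37–45 °C; IC50 from slopes.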

Usually IC50 stands for the concentration at which inhibition is half-maximal.

Where a name gives a salt, the structure may show the parent alone.

Recombinant human MAO-B, sequence (P27338 whole entry): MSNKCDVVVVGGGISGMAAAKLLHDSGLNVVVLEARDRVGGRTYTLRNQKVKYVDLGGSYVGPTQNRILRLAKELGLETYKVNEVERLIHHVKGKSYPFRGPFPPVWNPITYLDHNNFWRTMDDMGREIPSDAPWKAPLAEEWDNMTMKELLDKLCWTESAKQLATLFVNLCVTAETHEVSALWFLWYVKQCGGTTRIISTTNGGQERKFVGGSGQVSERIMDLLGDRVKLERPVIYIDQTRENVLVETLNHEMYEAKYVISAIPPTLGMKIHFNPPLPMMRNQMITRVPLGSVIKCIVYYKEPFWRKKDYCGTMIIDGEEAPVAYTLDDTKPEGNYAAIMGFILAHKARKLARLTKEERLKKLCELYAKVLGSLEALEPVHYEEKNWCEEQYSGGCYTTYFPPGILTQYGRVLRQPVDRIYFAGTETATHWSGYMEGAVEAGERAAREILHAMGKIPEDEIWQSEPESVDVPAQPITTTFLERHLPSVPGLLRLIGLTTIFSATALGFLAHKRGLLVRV
human recombinant SSAO/VAP-1, sequence (Q16853 34-763): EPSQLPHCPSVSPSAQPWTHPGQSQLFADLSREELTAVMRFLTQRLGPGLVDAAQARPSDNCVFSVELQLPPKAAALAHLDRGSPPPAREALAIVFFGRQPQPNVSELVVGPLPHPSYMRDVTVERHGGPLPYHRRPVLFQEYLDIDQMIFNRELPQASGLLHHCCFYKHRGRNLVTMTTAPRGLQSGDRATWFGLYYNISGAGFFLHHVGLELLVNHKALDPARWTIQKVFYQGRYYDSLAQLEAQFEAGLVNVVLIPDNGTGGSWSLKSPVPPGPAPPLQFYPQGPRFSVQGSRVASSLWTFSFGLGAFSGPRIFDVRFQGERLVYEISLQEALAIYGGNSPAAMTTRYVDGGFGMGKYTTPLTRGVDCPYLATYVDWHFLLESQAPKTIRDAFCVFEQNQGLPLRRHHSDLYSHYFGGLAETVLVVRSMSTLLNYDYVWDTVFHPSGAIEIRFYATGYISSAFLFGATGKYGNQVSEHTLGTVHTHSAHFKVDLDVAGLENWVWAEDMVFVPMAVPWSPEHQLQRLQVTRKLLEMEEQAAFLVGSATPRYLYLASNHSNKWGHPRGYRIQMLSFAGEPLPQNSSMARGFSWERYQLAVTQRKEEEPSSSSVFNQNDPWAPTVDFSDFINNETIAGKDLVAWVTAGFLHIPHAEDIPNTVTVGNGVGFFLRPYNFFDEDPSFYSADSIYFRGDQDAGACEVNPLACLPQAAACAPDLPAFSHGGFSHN
Human LOXL2, sequence (Q9Y4K0 26-774): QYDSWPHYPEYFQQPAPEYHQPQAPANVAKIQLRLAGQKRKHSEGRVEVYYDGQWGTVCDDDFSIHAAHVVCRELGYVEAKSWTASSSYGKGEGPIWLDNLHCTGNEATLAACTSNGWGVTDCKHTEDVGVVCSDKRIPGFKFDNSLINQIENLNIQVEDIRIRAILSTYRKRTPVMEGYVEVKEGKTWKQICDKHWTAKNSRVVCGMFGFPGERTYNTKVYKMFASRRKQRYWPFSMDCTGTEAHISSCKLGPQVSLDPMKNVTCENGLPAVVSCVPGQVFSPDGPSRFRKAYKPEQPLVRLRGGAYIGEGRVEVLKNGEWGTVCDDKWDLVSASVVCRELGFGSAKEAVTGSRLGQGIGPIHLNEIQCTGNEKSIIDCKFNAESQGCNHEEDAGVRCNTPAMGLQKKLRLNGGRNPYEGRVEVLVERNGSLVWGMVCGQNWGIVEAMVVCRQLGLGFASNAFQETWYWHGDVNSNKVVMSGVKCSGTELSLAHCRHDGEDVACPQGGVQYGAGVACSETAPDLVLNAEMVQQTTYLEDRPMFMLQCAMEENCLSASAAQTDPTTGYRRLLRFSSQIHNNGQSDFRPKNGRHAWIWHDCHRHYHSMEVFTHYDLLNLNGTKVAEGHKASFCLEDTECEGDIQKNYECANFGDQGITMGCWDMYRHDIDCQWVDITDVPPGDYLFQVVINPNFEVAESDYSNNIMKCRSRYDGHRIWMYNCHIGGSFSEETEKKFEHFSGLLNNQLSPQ
Bovine LOX, sequence (P33072 170-418): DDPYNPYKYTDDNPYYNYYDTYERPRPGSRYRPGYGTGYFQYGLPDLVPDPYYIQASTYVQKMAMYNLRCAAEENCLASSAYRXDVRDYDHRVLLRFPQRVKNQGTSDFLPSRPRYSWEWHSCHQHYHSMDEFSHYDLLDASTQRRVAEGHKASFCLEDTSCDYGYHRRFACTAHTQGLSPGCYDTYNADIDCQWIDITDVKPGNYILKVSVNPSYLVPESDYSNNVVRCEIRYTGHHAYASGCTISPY

Take `Cc1c(-c2cncc(S(=O)(=O)N(C)C)c2)c2cc(Cl)cnc2n1C/C(F)=C/CN` [Compound 73, (Z)-5-(1-(4-amino-2-fluorobut-2-en-1-yl)-5-chloro-2-methyl-1H-pyrrolo[2,3-b]pyridin-3-yl)-N,N-dimethylpyridine-3-sulfonamide]: the IC50 was more than 3 µM in assay [1], less than 0.3 µM against Human LOXL2, more than 3 µM at Recombinant human MAO-B and more than 0.3 µM against Bovine LOX.
In the case of `Cc1c(-c2cncc(S(=O)(=O)N(C)C)c2)c2cccc(Cl)c2n1C/C(F)=C/CN` [Compound 74, (Z)-5-(1-(4-amino-2-fluorobut-2-en-1-yl)-7-chloro-2-methyl-1H-indol-3-yl)-N,N-dimethylpyridine-3-sulfonamide], the IC50 was more than 3 µM in assay [1], less than 0.3 µM at Human LOXL2, more than 3 µM on Recombinant human MAO-B and more than 0.3 µM against Bovine LOX.
As to `Cc1c(-c2cncc(S(=O)(=O)N(C)C)c2)c2c(Cl)cccc2n1C/C(F)=C/CN` [Compound 75, (Z)-5-(1-(4-amino-2-fluorobut-2-en-1-yl)-4-chloro-2-methyl-1H-indol-3-yl)-N,N-dimethylpyridine-3-sulfonamide], the IC50 in assay [1] is more than 3 µM; on Human LOXL2 it was less than 0.3 µM; at Recombinant human MAO-B, more than 3 µM; at Bovine LOX it was more than 0.3 µM.
On to `Cc1c(-c2ccncc2)c2cc(Cl)ccc2n1C/C(F)=C/CN` [Compound 76, (Z)-4-(5-chloro-2-methyl-3-(pyridin-4-yl)-1H-indol-1-yl)-3-fluorobut-2-en-1-amine], for which the IC50 in assay [1] was more than 3 µM; at Human LOXL2, less than 0.3 µM; on Recombinant human MAO-B, more than 3 µM; on Bovine LOX, more than 0.3 µM.
In the case of `Cc1c(-c2cccnc2)c2cc(Cl)ccc2n1C/C(F)=C/CN` [Compound 77, (Z)-4-(5-chloro-2-methyl-3-(pyridin-3-yl)-1H-indol-1-yl)-3-fluorobut-2-en-1-amine], the IC50 in assay [1] is more than 3 µM; against Human LOXL2, less than 0.3 µM; at Recombinant human MAO-B it was more than 3 µM; at Bovine LOX, more than 0.3 µM.
Regarding `Cc1c(-c2cccc(S(=O)(=O)N(C)C)n2)c2cc(Cl)ccc2n1C/C(F)=C/CN` [Compound 78, (Z)-6-(1-(4-amino-2-fluorobut-2-en-1-yl)-5-chloro-2-methyl-1H-indol-3-yl)-N,N-dimethylpyridine-2-sulfonamide], the concentration for half-maximal inhibition (IC50) in assay [1] is more than 3 µM; against Human LOXL2, less than 0.3 µM; at Recombinant human MAO-B it was more than 3 µM; against Bovine LOX, more than 0.3 µM.
For `Cc1c(-c2cncc(S(=O)(=O)N(C)C)c2)c2cc(C3CC3)ccc2n1C/C(F)=C/CN` [Compound 79, (Z)-5-(1-(4-amino-2-fluorobut-2-en-1-yl)-5-cyclopropyl-2-methyl-1H-indol-3-yl)-N,N-dimethylpyridine-3-sulfonamide], the IC50 in assay [1] was more than 3 µM; at Human LOXL2 it was less than 0.3 µM; at Recombinant human MAO-B it was more than 3 µM; against Bovine LOX, more than 0.3 µM.
With `Cc1c(-c2cncnc2)c2cc(Cl)ccc2n1C/C(F)=C/CN` [Compound 80, (Z)-4-(5-chloro-2-methyl-3-(pyrimidin-5-yl)-1H-indol-1-yl)-3-fluorobut-2-en-1-amine], the IC50 in assay [1] is more than 3 µM; at Human LOXL2, less than 0.3 µM; at Recombinant human MAO-B, more than 3 µM; against Bovine LOX, more than 0.3 µM.
On to `Cc1c(-c2ccncc2)c2cc(S(=O)(=O)N(C)C)ccc2n1C/C(F)=C/CN` [Compound 81, (Z)-1-(4-amino-2-fluorobut-2-en-1-yl)-N,N,2-trimethyl-3-(pyridin-4-yl)-1H-indole-5-sulfonamide], for which the IC50 in assay [1] is more than 3 µM; against Human LOXL2, less than 0.3 µM; at Recombinant human MAO-B, more than 3 µM; against Bovine LOX, more than 0.3 µM.
In the case of `Cc1ccc(S(=O)(=O)N(C)C)cc1-c1c(C)n(C/C(F)=C/CN)c2c(F)cc(Cl)cc12` [Compound 82, (Z)-3-(1-(4-amino-2-fluorobut-2-en-1-yl)-5-chloro-7-fluoro-2-methyl-1H-indol-3-yl)-N,N,4-trimethylbenzenesulfonamide], the IC50 in assay [1] was more than 3 µM; against Human LOXL2 it was less than 0.3 µM; on Recombinant human MAO-B, more than 3 µM; against Bovine LOX, more than 0.3 µM.
Regarding `Cc1c(-c2cncc(S(N)(=O)=O)c2)c2cc(Cl)ccc2n1C/C(F)=C/CN` [Compound 83, (Z)-5-(1-(4-amino-2-fluorobut-2-en-1-yl)-5-chloro-2-methyl-1H-indol-3-yl)pyridine-3-sulfonamide], the IC50 in assay [1] was more than 3 µM; at Human LOXL2, less than 0.3 µM; at Recombinant human MAO-B, more than 3 µM; on Bovine LOX, more than 0.3 µM.
In the case of `Cc1c(-c2cncc(S(=O)(=O)N(C)C)c2)c2cc(OC(F)(F)F)ccc2n1C/C(F)=C/CN` [Compound 85, (Z)-5-(1-(4-amino-2-fluorobut-2-en-1-yl)-2-methyl-5-(trifluoromethoxy)-1H-indol-3-yl)-N,N-dimethyl-pyridine-3-sulfonamide Dihydrochloride], the IC50 was more than 3 µM in assay [1], less than 0.3 µM against Human LOXL2, more than 3 µM on Recombinant human MAO-B and more than 0.3 µM at Bovine LOX.
For `Cc1c(-c2ccccc2)c2cc(S(=O)(=O)N(C)C)ccc2n1C/C(F)=C/CN` [Compound 86, (Z,)-1-(4-amino-2-fluorobut-2-en-1-yl)-N,N,2-trimethyl-3-phenyl-1H-indole-5-sulfonamide], the IC50 in assay [1] was more than 3 µM; at Human LOXL2, less than 0.3 µM; at Recombinant human MAO-B, more than 3 µM; at Bovine LOX, more than 0.3 µM.
As for `Cc1c(-c2ccccc2)c2cc(S(C)(=O)=O)ccc2n1C/C(F)=C/CN` [Compound 87, (Z)-3-fluoro-4-(2-methyl-5-(methylsulfonyl)-3-phenyl-1H-indol-1-yl)but-2-en-1-amine], the IC50 in assay [1] is more than 3 µM; on Human LOXL2, less than 0.3 µM; on Recombinant human MAO-B, more than 3 µM; at Bovine LOX, more than 0.3 µM.
With `Cc1c(-c2ccncc2)c2cc(S(C)(=O)=O)ccc2n1C/C(F)=C/CN` [Compound 88, (Z)-3-fluoro-4-(2-methyl-5-(methylsulfonyl)-3-(pyridin-4-yl)-1H-indol-1-yl)but-2-en-1-amine], the IC50 in assay [1] is more than 3 µM; against Human LOXL2 it was less than 0.3 µM; at Recombinant human MAO-B it was more than 3 µM; against Bovine LOX, more than 0.3 µM.
With `Cc1cc(-c2c(C)n(C/C(F)=C/CN)c3ccc(S(C)(=O)=O)cc23)cc(C)n1` [Compound 89, (Z)-4-(3-(2,6-dimethylpyridin-4-yl)-2-methyl-5-(methylsulfonyl)-1H-indol-1-yl)-3-fluorobut-2-en-1-amine], the IC50 is more than 3 µM in assay [1], less than 0.3 µM on Human LOXL2, more than 3 µM on Recombinant human MAO-B and more than 0.3 µM against Bovine LOX.
For the compound `Cc1cc(-c2c(C)n(C/C(F)=C/CN)c3ccc(C(=O)N(C)C)cc23)cc(C)n1` [Compound 90, (Z)-1-(4-amino-2-fluorobut-2-en-1-yl)-3-(2,6-dimethylpyridin-4-yl)-N,N,2-trimethyl-1H-indole-5-carboxamide], the IC50 in assay [1] is more than 3 µM; against Human LOXL2 it was less than 0.3 µM; at Recombinant human MAO-B, more than 3 µM; on Bovine LOX, more than 0.3 µM.
Turning to `Cc1c(-c2ccncc2)c2cc(C(=O)NC(C)(C)C)ccc2n1C/C(F)=C/CN` [Compound 91, (Z)-1-(4-amino-2-fluorobut-2-en-1-yl)-N-(tert-butyl)-2-methyl-3-(pyridin-4-yl)-1H-indole-5-carboxamide], the IC50 in assay [1] was more than 3 µM; against Human LOXL2, less than 0.3 µM; at Recombinant human MAO-B, more than 3 µM; against Bovine LOX, more than 0.3 µM.
As to `Cc1c(-c2ccc3c(c2)OCO3)c2cc(S(C)(=O)=O)ccc2n1C/C(F)=C/CN` [Compound 92, (Z)-4-(3-(benzo[d][1,3]dioxol-5-yl)-2-methyl-5-(methylsulfonyl)-1H-indol-1-yl)-3-fluorobut-2-en-1-amine], the IC50 in assay [1] is more than 3 µM; on Human LOXL2, less than 0.3 µM; at Recombinant human MAO-B, more than 3 µM; against Bovine LOX, more than 0.3 µM.
Regarding `Cc1c(-c2ccc(F)cc2)c2cc(S(C)(=O)=O)ccc2n1C/C(F)=C/CN` [Compound 93, (Z)-3-fluoro-4-(3-(4-fluorophenyl)-2-methyl-5-(methylsulfonyl)-1H-indol-1-yl)but-2-en-1-amine], the IC50 in assay [1] was more than 3 µM; at Human LOXL2, less than 0.3 µM; on Recombinant human MAO-B it was more than 3 µM; on Bovine LOX it was more than 0.3 µM.
`Cc1cc(-c2c(C)n(C/C(F)=C/CN)c3ccc(S(C)(=O)=O)cc23)ccn1` [Compound 94, (Z)-3-fluoro-4-(2-methyl-3-(2-methylpyridin-4-yl)-5-(methylsulfonyl)-1H-indol-1-yl)but-2-en-l-amine, Dihydrochloride]: the IC50 is more than 3 µM in assay [1], less than 0.3 µM at Human LOXL2, more than 3 µM on Recombinant human MAO-B and more than 0.3 µM on Bovine LOX.
Regarding `Cc1c(-c2ccc(F)cc2)c2cc(S(N)(=O)=O)ccc2n1C/C(F)=C/CN` [Compound 95, (Z)-1-(4-amino-2-fluorobut-2-en-1-yl)-3-(4-fluorophenyl)-2-methyl-1H-indole-5-sulfonamide], the IC50 was more than 3 µM in assay [1], less than 0.3 µM at Human LOXL2, more than 3 µM on Recombinant human MAO-B and more than 0.3 µM against Bovine LOX.
